Laboratory results taken from ChEMBL document CHEMBL4834412, “2,4,5-Trisubstituted Pyrimidines as Potent HIV-1 NNRTIs: Rational Design, Synthesis, Activity Evaluation, and Crystallographic Studies” (J Med Chem, 2021).

What was measured:
Format in all cases: functional, organism-based
[1] = test system: Human immunodeficiency virus 1; assay: Antiviral activity against HIV-1 harboring RT K103N mutant infected in human MT4 cells assessed as protection against virus-induced cytopathogenicity after 5 days by MTT assay; conditions: Human immunodeficiency virus 1, MT4, 120 h
[2] = test system: Human immunodeficiency virus 1; assay: Antiviral activity against HIV-1 harboring RT F227L/V106A mutant infected in human MT4 cells assessed as protection against virus-induced cytopathogenicity after 5 days by MTT assay; conditions: Human immunodeficiency virus 1, MT4, 120 h
[3] = test system: Human immunodeficiency virus 1; assay: Antiviral activity against NNRTI-resistant HIV-1 RES056 harboring RT K103N/Y181C mutant infected in human MT4 cells assessed as protection against virus-induced cytopathogenicity after 5 days by MTT assay; conditions: Human immunodeficiency virus 1, RES056, MT4, 120 h
[4] = test system: Human immunodeficiency virus 1; assay: Antiviral activity against HIV-1 harboring RT E138K mutant infected in human MT4 cells assessed as protection against virus-induced cytopathogenicity after 5 days by MTT assay; conditions: Human immunodeficiency virus 1, MT4, 120 h
[5] = test system: Human immunodeficiency virus 1; assay: Antiviral activity against HIV-1 strain IIIB infected in human MT4 cells assessed as protection against virus-induced cytopathicity after 5 days by MTT assay; conditions: Human immunodeficiency virus 1, IIIB, MT4, 120 h
[6] = test system: Human immunodeficiency virus 1; assay: Antiviral activity against HIV-1 harboring RT L100I mutant infected in human MT4 cells assessed as protection against virus-induced cytopathogenicity after 5 days by MTT assay; conditions: Human immunodeficiency virus 1, MT4, 120 h
[7] = test system: Human immunodeficiency virus 1; assay: Antiviral activity against HIV-1 harboring RT Y188L mutant infected in human MT4 cells assessed as protection against virus-induced cytopathogenicity after 5 days by MTT assay; conditions: Human immunodeficiency virus 1, MT4, 120 h
[8] = test system: Human immunodeficiency virus 1; assay: Antiviral activity against HIV-1 harboring RT Y181C mutant infected in human MT4 cells assessed as protection against virus-induced cytopathogenicity after 5 days by MTT assay; conditions: Human immunodeficiency virus 1, MT4, 120 h

Structure (SMILES)	EC50 [1]	EC50 [2]	EC50 [3]	EC50 [4]	EC50 [5]	EC50 [6]	EC50 [7]	EC50 [8]
Cc1cc(C#N)cc(C)c1Oc1nc(NC2CCN(Cc3ccc(S(C)(=O)=O)cc3)CC2)ncc1-c1ccoc1	4.39 nM	41.5 nM	172 nM	15.3 nM	4.75 nM	14.8 nM	24.2 nM	14.4 nM
Cc1cc(C#N)cc(C)c1Oc1nc(NC2CCN(Cc3ccc(S(C)(=O)=O)cc3)CC2)ncc1-c1cccs1	5.71 nM	38.4 nM	134 nM	6.27 nM	4.01 nM	8.93 nM	15.4 nM	11.6 nM
Cc1cc(/C=C/C#N)cc(C)c1Oc1nc(NC2CCN(Cc3ccc(C(N)=O)cc3)CC2)ncc1-c1ccncc1	3.84 nM	35.5 nM	23.3 nM	8.66 nM	4.19 nM	5.62 nM	23 nM	7.14 nM
Cc1cc(C#N)cc(C)c1Oc1nc(NC2CCN(Cc3ccc(S(C)(=O)=O)cc3)CC2)ncc1-c1ccccc1	11.7 nM	218 nM	590 nM	32.1 nM	4.93 nM	71.7 nM	35.5 nM	33.7 nM
Cc1cc(C#N)cc(C)c1Oc1nc(NC2CCN(Cc3ccc(S(C)(=O)=O)cc3)CC2)ncc1-c1ccncc1	4.4 nM	79.4 nM	244 nM	9.19 nM	5.93 nM	17.4 nM	18.5 nM	10.8 nM
COc1cc(-c2cnc(NC3CCN(Cc4ccc(S(C)(=O)=O)cc4)CC3)nc2Oc2c(C)cc(/C=C/C#N)cc2C)ccn1	–	–	30 nM	–	3.95 nM	–	–	–
Cc1cc(/C=C/C#N)cc(C)c1Oc1nc(NC2CCN(Cc3ccc(S(C)(=O)=O)cc3)CC2)ncc1-c1ccnc(Cl)c1	–	–	33.3 nM	–	4.23 nM	–	–	–
Cc1cc(/C=C/C#N)cc(C)c1Oc1nc(NC2CCN(Cc3ccc(S(N)(=O)=O)cc3)CC2)ncc1-c1ccc(N)nc1	–	–	33.5 nM	–	5.8 nM	–	–	–
Cc1cc(-c2cnc(NC3CCN(Cc4ccc(S(N)(=O)=O)cc4)CC3)nc2Oc2c(C)cc(/C=C/C#N)cc2C)ccn1	–	–	23 nM	–	4.16 nM	–	–	–
Cc1cc(/C=C/C#N)cc(C)c1Oc1nc(NC2CCN(Cc3ccc(S(C)(=O)=O)cc3)CC2)ncc1-c1ccc(F)nc1	–	–	25.5 nM	–	6.04 nM	–	–	–
Cc1cc(/C=C/C#N)cc(C)c1Oc1nc(NC2CCN(Cc3ccc(C(N)=O)cc3)CC2)ncc1-c1ccnc(F)c1	–	–	53.4 nM	–	8.26 nM	–	–	–
COc1cc(-c2cnc(NC3CCN(Cc4ccc(C(N)=O)cc4)CC3)nc2Oc2c(C)cc(/C=C/C#N)cc2C)ccn1	–	–	40.3 nM	–	7.28 nM	–	–	–
Cc1cc(/C=C/C#N)cc(C)c1Oc1nc(NC2CCN(Cc3ccc(S(C)(=O)=O)cc3)CC2)ncc1-c1ccc(N)nc1	–	–	26.2 nM	–	5.29 nM	–	–	–
Cc1cc(/C=C/C#N)cc(C)c1Oc1nc(NC2CCN(Cc3ccc(S(C)(=O)=O)cc3)CC2)ncc1-c1cccnc1	5.42 nM	13.2 nM	22.4 nM	12.2 nM	4.57 nM	10.7 nM	22.7 nM	10.3 nM
Cc1cc(/C=C/C#N)cc(C)c1Oc1nc(NC2CCN(Cc3ccc(C(N)=O)cc3)CC2)ncc1-c1cccnc1	5.76 nM	21.7 nM	23.1 nM	11.3 nM	4.78 nM	10.8 nM	25.5 nM	10.1 nM
Cc1cc(C#N)cc(C)c1Oc1nc(NC2CCN(Cc3ccc(S(N)(=O)=O)cc3)CC2)ncc1-c1ccoc1	3 nM	63.2 nM	161 nM	13 nM	2.51 nM	13.6 nM	15.3 nM	9.35 nM
Cc1cc(/C=C/C#N)cc(C)c1Oc1nc(NC2CCN(Cc3ccc(S(N)(=O)=O)cc3)CC2)ncc1-c1ccnc(F)c1	–	–	38.8 nM	–	6.37 nM	–	–	–
Cc1cc(C#N)cc(C)c1Oc1nc(NC2CCN(Cc3ccc(S(N)(=O)=O)cc3)CC2)ncc1-c1ccccc1	7.74 nM	219 nM	427 nM	24.5 nM	5.14 nM	53.2 nM	33.2 nM	26.2 nM
Cc1cc(-c2cnc(NC3CCN(Cc4ccc(C(N)=O)cc4)CC3)nc2Oc2c(C)cc(/C=C/C#N)cc2C)ccn1	–	–	18.1 nM	–	3.53 nM	–	–	–
Cc1cc(/C=C/C#N)cc(C)c1Oc1nc(NC2CCN(Cc3ccc(S(N)(=O)=O)cc3)CC2)ncc1-c1ccnc(Cl)c1	–	–	20.9 nM	–	4.3 nM	–	–	–

Structure (SMILES)	EC50 [1]	EC50 [2]	EC50 [3]	EC50 [4]	EC50 [5]	EC50 [6]	EC50 [7]	EC50 [8]
Cc1cc(/C=C/C#N)cc(C)c1Oc1nc(NC2CCN(Cc3ccc(C(N)=O)cc3)CC2)ncc1-c1ccc(F)nc1	5.97 nM	27.5 nM	20.4 nM	11.7 nM	4.56 nM	5.76 nM	30.1 nM	10.3 nM
Cc1cc(C#N)cc(C)c1Oc1nc(NC2CCN(Cc3ccc(C(N)=O)cc3)CC2)ncc1-c1ccccc1	9.15 nM	393 nM	562 nM	17.1 nM	5.11 nM	151 nM	30.5 nM	28.7 nM
Cc1cc(C#N)cc(C)c1Oc1nc(NC2CCN(Cc3ccc(C(N)=O)cc3)CC2)ncc1-c1cccs1	5.15 nM	75.4 nM	115 nM	8.85 nM	3.34 nM	14.7 nM	17.9 nM	10.2 nM
Cc1cc(/C=C/C#N)cc(C)c1Oc1nc(NC2CCN(Cc3ccc(S(N)(=O)=O)cc3)CC2)ncc1-c1ccncc1	4.91 nM	23.7 nM	22.9 nM	11.1 nM	4.6 nM	5.87 nM	27.1 nM	24.2 nM
Cc1cc(C#N)cc(C)c1Oc1nc(NC2CCN(Cc3ccc(S(N)(=O)=O)cc3)CC2)ncc1-c1ccco1	5.33 nM	128 nM	218 nM	24.5 nM	4.4 nM	20.9 nM	36.5 nM	24.8 nM
Cc1cc(C#N)cc(C)c1Oc1nc(NC2CCN(Cc3ccc(S(N)(=O)=O)cc3)CC2)ncc1-c1ccncc1	2.33 nM	45.9 nM	111 nM	8.12 nM	2.59 nM	10.6 nM	21.4 nM	6.93 nM
Cc1cc(C#N)cc(C)c1Oc1nc(NC2CCN(Cc3ccc(C(N)=O)cc3)CC2)ncc1-c1ccco1	3.73 nM	161 nM	254 nM	11.9 nM	5.78 nM	38.2 nM	23.3 nM	14.9 nM
Cc1cc(/C=C/C#N)cc(C)c1Oc1nc(NC2CCN(Cc3ccc(S(C)(=O)=O)cc3)CC2)ncc1-c1ccncc1	–	–	26.3 nM	–	5.74 nM	–	–	–
Cc1cc(/C=C/C#N)cc(C)c1Oc1nc(NC2CCN(Cc3ccc(S(N)(=O)=O)cc3)CC2)ncc1-c1ccnc(Br)c1	–	–	26.9 nM	–	4.42 nM	–	–	–
Cc1cc(/C=C/C#N)cc(C)c1Oc1nc(NC2CCN(Cc3ccc(C(N)=O)cc3)CC2)ncc1-c1ccc(N)nc1	6.66 nM	15.4 nM	30.2 nM	15.4 nM	6.56 nM	11.3 nM	54.2 nM	12 nM
Cc1cc(/C=C/C#N)cc(C)c1Oc1nc(NC2CCN(Cc3ccc(C(N)=O)cc3)CC2)ncc1-c1ccnc(Br)c1	–	–	32.2 nM	–	7 nM	–	–	–
Cc1cc(/C=C/C#N)cc(C)c1Oc1nc(NC2CCN(Cc3ccc(S(C)(=O)=O)cc3)CC2)ncc1-c1ccnc(Br)c1	–	–	33.2 nM	–	4.52 nM	–	–	–
Cc1cc(/C=C/C#N)cc(C)c1Oc1nc(NC2CCN(Cc3ccc(S(N)(=O)=O)cc3)CC2)ncc1-c1ccc(F)nc1	7.5 nM	23.1 nM	28.2 nM	49.1 nM	5.8 nM	11.4 nM	36.7 nM	15.4 nM
Cc1cc(C#N)cc(C)c1Oc1nc(NC2CCN(Cc3ccc(S(C)(=O)=O)cc3)CC2)ncc1-c1ccsc1	4.75 nM	67.5 nM	253 nM	10.6 nM	4.92 nM	20.3 nM	27.2 nM	11.7 nM
Cc1cc(C#N)cc(C)c1Oc1nc(NC2CCN(Cc3ccc(C(N)=O)cc3)CC2)ncc1-c1ccsc1	5.52 nM	325 nM	415 nM	22 nM	4.22 nM	62.6 nM	30 nM	26.4 nM
Cc1cc(/C=C/C#N)cc(C)c1Oc1nc(NC2CCN(Cc3ccc(S(C)(=O)=O)cc3)CC2)ncc1-c1ccnc(F)c1	–	–	25.1 nM	–	4.75 nM	–	–	–
COc1cc(-c2cnc(NC3CCN(Cc4ccc(S(N)(=O)=O)cc4)CC3)nc2Oc2c(C)cc(/C=C/C#N)cc2C)ccn1	–	–	34.3 nM	–	5.75 nM	–	–	–
Cc1cc(C#N)cc(C)c1Oc1nc(Nc2ccc(C#N)cc2)nc(N)c1Br [ETRAVIRINE]	–	–	–	7.17 nM	–	–	13.7 nM	13.6 nM
Cc1cc(-c2cnc(NC3CCN(Cc4ccc(S(C)(=O)=O)cc4)CC3)nc2Oc2c(C)cc(/C=C/C#N)cc2C)ccn1	–	–	31.5 nM	–	4.55 nM	–	–	–
Cc1cc(/C=C/C#N)cc(C)c1Oc1nc(NC2CCN(Cc3ccc(C(N)=O)cc3)CC2)ncc1-c1ccnc(Cl)c1	–	–	81.7 nM	–	4.14 nM	–	–	–
